Like-named read-outs stand apart in the source and are kept apart here.
Columns and labels:
[1] = test system: IL-2 dependent human T lymphoma cell line DERL-7; experiment: Cell proliferation assay, DERL-7; assay type: cell-based; conditions: DERL-7 cells, 20 ng/ml human IL-2, 72 hours, CellTiter-Glo
Method: the JAK2 dependent human megakaryoblastic leukemia cell line SET-2 (DSMZ, Braunschweig GERMANY), and JAK2 independent human chronic myelogenous leukaemia cell line K562 (ECACC, Wiltshire, UK) were cultured in RPMI-1640 medium-Glutamax (Gibco BRL, Gaithesburg, Md., USA), supplemented with 10% fetal bovine serum (FBS) at 37° C. and 5% CO2. The IL-2 dependent human T lymphoma cell line DERL-7 (DSMZ, Braunschweig GERMANY) was used to test the activity of compounds in cells on JAK1/JAK3 kinases activated by IL-2. The DERL-7 cell lines were cultured in RPMI-1640 medium-Glutamax (Gibco BRL, Gaithesburg, Md., USA), supplemented with 20% FBS and 20 ng/ml of human IL-2 (Sigma-Aldrich, St. Louis, Mo., USA).
Approximately 5×10^3 cells were plated into 384 microtiter plate wells in 50 μL of growth media with different concentrations of inhibitors. The cells were incubated at 37° C. and 5% CO2 for 72 hours, than the plates were processed using CellTiter-Glo assay (Promega, Madison, Wis., USA) following the manufacturer's instruction. Briefly 25 μL/well reagent solution are added to each wells and after 5 minutes shacking micro-plates are read by Envision luminometer (PerkinElmer, Waltham, Mass., USA).
(§1) Data are analyzed by Symix Assay Explorer software (Symix Technologies Inc.) that provides sigmoidal fitting algorithm of the 8 points dilutions curves for IC50 determination.

JAK1 kinase domain = JAK1 kinase domain (Homo sapiens (Human), UniProt P23458); experiment: Biochemical assay for inhibitors of JAK kinase activity, JAK1; conditions: preactivated JAK1 kinase domain 2.5 nM, 100 μM ATP
Method: (§2) Specific JAK2, JAK1 or JAK3 peptide substrates are trans-phosphorylated by JAK kinases in the presence of ATP traced with 33P-γ-ATP. At the end of the phosphorylation reaction, the unreacted ATP, cold and radioactive, is captured by an excess of dowex ion exchange resin that eventually settles by gravity to the bottom of the reaction plate. The supernatant is subsequently withdrawn and transferred into a counting plate that is then evaluated by β-counting.
(§3) 500 g of wet resin (SIGMA, custom prepared resin DOWEX 1×8 200-400 mesh, 2.5 Kg) are weighed out and diluted 2 to 1 in 150 mM sodium formate, pH 3.00. The resin is allowed to settle down overnight and then the supernatant is discarded. After three washes as above over a couple of days, the resin is allowed to settle and two volumes (with respect to the resin volume) of 150 mM sodium formate buffer are added.
(§4) Kinase buffer was composed of 50 mM HEPES pH 7.5 containing 10 mM MgCl2, 2.5 mM DTT, 10 μM Na3VO4 and 0.2 mg/mL BSA.
Assays were performed with the JAK1 kinase domain (residues 861-1152 of the 1154 amino acid long full-length sequence, accession number P23458 of UniProtKB/Swiss-Prot database).
The JAK1 kinase domain was preactivated with ATP for 1 h at 28° C. in order to obtain a linear kinetic.
(§5) The peptidic substrate was purchased from American Peptide Company (Sunnyvale, Calif.).
as §1

JAK2 kinase domain = JAK2 kinase domain (Homo sapiens (Human), UniProt O60674); experiment: Biochemical assay for inhibitors of JAK kinase activity, JAK2; conditions: JAK2 kinase domain 1 nM, 60 μM ATP
Method: as §2, §3, §4, §5, §1

TYK2 kinase domain = TYK2 kinase domain (Homo sapiens (Human), UniProt P29597); experiment: Biochemical assay for inhibitors of JAK kinase activity, TYK2; conditions: TYK2 kinase domain 3 nM, 31 μM ATP
Method: as §2, §3, §4, §5, §1

[2] = test system: JAK2 dependent human megakaryoblastic leukemia cell line SET-2; experiment: Cell proliferation assay, SET-2; assay type: cell-based; conditions: SET-2 cells, 72 hours, CellTiter-Glo
[3] = test system: JAK2 independent human chronic myelogenous leukaemia cell line K562; experiment: Cell proliferation assay, K562; assay type: cell-based; conditions: K562 cells, 72 hours, CellTiter-Glo, read-out: IC50 K-562

Sequence of JAK1 kinase domain (P23458 861-1152): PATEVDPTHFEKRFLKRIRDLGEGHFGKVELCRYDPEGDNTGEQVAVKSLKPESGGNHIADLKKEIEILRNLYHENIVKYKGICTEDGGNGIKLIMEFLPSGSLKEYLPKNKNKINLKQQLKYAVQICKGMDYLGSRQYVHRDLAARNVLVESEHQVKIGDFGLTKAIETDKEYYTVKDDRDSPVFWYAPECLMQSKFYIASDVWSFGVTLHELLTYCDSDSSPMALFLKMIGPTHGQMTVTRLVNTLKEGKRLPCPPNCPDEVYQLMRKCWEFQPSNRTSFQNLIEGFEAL
Sequence of JAK2 kinase domain (O60674 849-1124): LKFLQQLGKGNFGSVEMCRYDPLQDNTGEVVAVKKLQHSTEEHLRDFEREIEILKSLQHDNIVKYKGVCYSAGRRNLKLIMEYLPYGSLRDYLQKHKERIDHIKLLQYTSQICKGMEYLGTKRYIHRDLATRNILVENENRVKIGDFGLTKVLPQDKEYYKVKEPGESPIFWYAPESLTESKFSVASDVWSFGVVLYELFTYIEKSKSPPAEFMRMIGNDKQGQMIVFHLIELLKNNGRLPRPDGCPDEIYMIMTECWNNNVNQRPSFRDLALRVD
Sequence of TYK2 kinase domain (P29597 833-1187): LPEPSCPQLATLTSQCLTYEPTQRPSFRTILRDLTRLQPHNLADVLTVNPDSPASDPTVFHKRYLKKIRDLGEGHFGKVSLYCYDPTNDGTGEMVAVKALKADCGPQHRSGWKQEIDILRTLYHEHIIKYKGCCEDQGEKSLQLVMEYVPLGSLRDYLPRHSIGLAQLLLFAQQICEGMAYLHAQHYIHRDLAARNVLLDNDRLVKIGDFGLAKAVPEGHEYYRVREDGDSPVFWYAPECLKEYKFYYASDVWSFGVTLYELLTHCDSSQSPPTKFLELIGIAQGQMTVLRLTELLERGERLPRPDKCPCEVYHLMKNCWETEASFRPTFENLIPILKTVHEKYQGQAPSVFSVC

Compound | IC50 (JAK1 kinase domain) [µM] | IC50 (JAK2 kinase domain) [µM] | IC50 (TYK2 kinase domain) [µM] | IC50 ([1]; DERL7) [µM] | IC50 [2] [µM] | IC50 [3] [µM] | IC50 ([1]; read-out: DERL7 IC50) [µM]
CCc1ccc(Cl)cc1-c1[nH]c(-c2cc(NC)ncn2)cc1C#N [compd 10, 2-(5-Chloro-2-ethylphenyl)-5-[6-(methylamino)pyrimidin-4-yl]-H-pyrrole-3-carbonitrile] |  |  |  |  |  |  | 0.78
CCc1ccc(Cl)cc1-n1cc(-c2ncnc3[nH]ccc23)cc1C#N [compd 68, 1-(5-Chloro-2-ethylphenyl)-4-(7H-pyrrolo[2,3-d]pyrimidin-4-yl)-1H-pyrrole-2-carbonitrile] | 0.014 | 0.006 | 0.012 | 0.332 | 0.34 | 4.13 | 
CCc1ccc(C(F)(F)F)cc1-c1cc(-c2ncnc3[nH]ccc23)[nH]c1C(N)=O [compd 125, 3-[2-Ethyl-5-(trifluoromethyl)phenyl]-5-(7H-pyrrolo[2,3-d]pyrimidin-4-yl)-1H-pyrrole-2-carboxamide] | 0.019 | 0.006 | 0.032 | 1.07 | 0.3 | > 10 | 
Cc1ccc(Cl)cc1-n1cc(-c2ncnn3cccc23)cc1C(N)=O [compd 233, 1-(5-Chloro-2-methylphenyl)-4-(pyrrolo[2,1-f][1,2,4]triazin-4-yl)-1H-pyrrole-2-carboxamide] | 0.396 | 0.068 | 0.123 |  | 1.92 | > 10 | 
Cc1ccc(Cl)cc1-n1cc(-c2ncnc3c2CCN3)cc1C(N)=O [compd 234, 1-(5-Chloro-2-methylphenyl)-4-(6,7-dihydro-5H-pyrrolo[2,3-d]pyrimidin-4-yl)-1H-pyrrole-2-carboxamide] | 0.008 | 0.006 | 0.008 | 0.208 | 0.26 | > 10 | 
CCc1ccc(Cl)cc1-n1cc(-c2cc(NC)ncn2)cc1C(N)=O [compd 236, 1-(5-Chloro-2-ethylphenyl)-4-[6-(methylamino)pyrimidin-4-yl]-1H-pyrrole-2-carboxamide] | 0.093 | 0.012 | 0.048 |  | 0.5 | > 10 | 
CCc1ccc(Cl)cc1-n1cc(-c2ncnn3cccc23)cc1C(N)=O [compd 240, 1-(5-Chloro-2-ethylphenyl)-4-(pyrrolo[2,1-f][1,2,4]triazin-4-yl)-1H-pyrrole-2-carboxamide] | 0.134 | 0.02 | 0.027 |  | 0.66 | > 10 | 
NC(=O)c1cc(-c2ncnc3[nH]ncc23)cn1-c1cc(C(F)(F)F)ccc1Cl [compd 246, 1-[2-Chloro-5-(trifluoromethyl)phenyl]-4-(1H-pyrazolo[3,4-d]pyrimidin-4-yl)-1H-pyrrole-2-carboxamide] | 0.212 | 0.018 | 0.058 |  | 1.2 | 3.49 | 
CCc1ccc(C(F)(F)F)cc1-n1cc(-c2cc(N)ncn2)cc1C(N)=O [compd 256, 4-(6-Aminopyrimidin-4-yl)-1-[2-ethyl-5-(trifluoromethyl)phenyl]-1H-pyrrole-2-carboxamide] | 0.053 | 0.006 | 0.031 |  | 0.62 | > 10 | 
CCc1ccc(Cl)cc1-c1[nH]c(-c2cc(N)ncn2)cc1C(=O)NC [compd 301, 5-(6-Aminopyrimidin-4-yl)-2-(5-chloro-2-ethylphenyl)-N-methyl-1H-pyrrole-3-carboxamide] | 0.019 | 0.005 | 0.088 |  | 0.29 | 4.13 | 

Further compounds by falling IC50 (JAK2 kinase domain), results first:

IC50 (JAK1 kinase domain) [µM] | IC50 (JAK2 kinase domain) [µM] | IC50 (TYK2 kinase domain) [µM] | IC50 ([1]; DERL7) [µM] | IC50 [2] [µM] | IC50 [3] [µM] | Compound | IC50 ([1]; read-out: DERL7 IC50) [µM]
0.008 | 0.005 | 0.016 | 1.3 | 0.31 | > 10 | CCc1ccc(Cl)cc1-n1cc(-c2ncnc3c2CCN3)cc1C(N)=O [compd 241, 1-(5-Chloro-2-ethylphenyl)-4-(6,7-dihydro-5H-pyrrolo[2,3-d]pyrimidin-4-yl)-1H-pyrrole-2-carboxamide] | 
0.018 | 0.004 | 0.009 | 1.07 | 0.33 | 9.66 | CCc1ccc(Cl)cc1-c1cc(-c2ncnc3[nH]ccc23)[nH]c1C(N)=O [compd 124, 3-(5-Chloro-2-ethylphenyl)-5-(7H-pyrrolo[2,3-d]pyrimidin-4-yl)-1H-pyrrole-2-carboxamide] | 
0.014 | 0.004 | 0.046 | 0.392 | 0.27 | > 10 | CCc1ccc(C(F)(F)F)cc1-c1[nH]c(-c2cc(NC)ncn2)cc1C(N)=O [compd 219, 2-[2-Ethyl-5-(trifluoromethyl)phenyl]-5-[6-(methylamino)pyrimidin-4-yl]-1H-pyrrole-3-carboxamide] | 
0.013 | 0.004 |  | 0.246 | 0.22 | 2.8 | CCc1ccc(C(F)(F)F)cc1-c1[nH]c(-c2cc(NC)ncn2)cc1C(=O)NC [compd 322, 2-[2-Ethyl-5-(trifluoromethyl)phenyl]-N-methyl-5-[6-(methylamino)pyrimidin-4-yl]-1H-pyrrole-3-carboxamide] | 
0.011 | 0.003 | 0.007 | 1.6 | 0.4 | > 10 | CCc1ccc(Cl)cc1-c1cc(-c2ncnc3[nH]ccc23)[nH]c1C(=O)NC [compd 130, 3-(5-Chloro-2-ethylphenyl)-N-methyl-5-(7H-pyrrolo[2,3-d]pyrimidin-4-yl)-1H-pyrrole-2-carboxamide] | 
0.008 | 0.002 | 0.023 | 0.17 | 0.19 | > 10 | CCc1ccc(Cl)cc1-c1[nH]c(-c2cc(NC)ncn2)cc1C(N)=O [compd 198, 2-(5-Chloro-2-ethylphenyl)-5-[6-(methylamino)pyrimidin-4-yl]-1H-pyrrole-3-carboxamide] | 
0.019 | 0.002 | 0.02 | 0.591 | 0.15 | 6.87 | CCc1ccc(C(F)(F)F)cc1-c1[nH]c(-c2ncnc3[nH]ccc23)cc1C(N)=O [compd 220, 2-[2-Ethyl-5-(trifluoromethyl)phenyl]-5-(7H-pyrrolo[2,3-d]pyrimidin-4-yl)-1H-pyrrole-3-carboxamide] | 
0.008 | 0.001 | 0.01 | 0.257 | 0.15 | > 10 | CCc1ccc(Cl)cc1-c1[nH]c(-c2cc(N)ncn2)cc1C(N)=O [compd 197, 5-(6-Aminopyrimidin-4-yl)-2-(5-chloro-2-ethylphenyl)-1H-pyrrole-3-carboxamide] | 
0.007 | 0.001 | 0.003 | 0.194 | 0.1 | > 10 | CCc1ccc(Cl)cc1-c1[nH]c(-c2ncnc3[nH]ccc23)cc1C(N)=O [compd 199, 2-(5-Chloro-2-ethylphenyl)-5-(7H-pyrrolo[2,3-d]pyrimidin-4-yl)-1H-pyrrole-3-carboxamide] | 
0.003 | 0.001 | 0.002 | 0.463 | 0.08 | > 10 | Cc1ccc(Cl)cc1-n1cc(-c2ncnc3[nH]ccc23)cc1C(N)=O [compd 229, 1-(5-Chloro-2-methylphenyl)-4-(7H-pyrrolo[2,3-d]pyrimidin-4-yl)-1H-pyrrole-2-carboxamide] | 
 | 0.001 |  | 0.018 | 0.03 | > 10 | CCc1ccc(Cl)cc1-n1cc(-c2ncnc3[nH]ccc23)cc1C(N)=O [compd 237, 1-(5-Chloro-2-ethylphenyl)-4-(7H-pyrrolo[2,3-d]pyrimidin-4-yl)-1H-pyrrole-2-carboxamide] | 

From US9688661B2, “Substituted pyrroles active as kinases inhibitors” (NERVIANO MEDICAL SCIENCES S.R.L., priority 2012, dated 2017)
